Assay results published in patent US8987195B2 (priority 2012, dated 2015).
Like-named read-outs stand apart in the source and are kept apart here.

Columns and labels:
[1] = molecular target: HCV NS3/4A protease genotype 1b (Hepatitis C virus genotype 1b, UniProt P26663); test: HCV NS3/4A protease time-resolved fluorescence (TRF) assay, Ki against genotype 1b; format: biochemical
In short: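 NS3/4A enzyme was preincubated 30 min with inhibitor in 50 mM HEPES pH 7.5, 150 mM NaCl, 15% glycerol, 0.15% Triton X-100, 10 mM DTT, 0.1% PEG 8000; 25 nM europium TRF peptide substrate added, 2.5 h at room temperature. Enzyme: 0.2 nM (1b), 0.4 nM (A156T), 0.025 nM (3a). Ki from IC50 via Cheng-Prusoff.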

[2] = molecular target: HCV NS3/4A protease A156T mutant (Hepatitis C virus genotype 1b, UniProt P26663, A1182T); test: HCV NS3/4A protease time-resolved fluorescence (TRF) assay, Ki against A156T mutant; format: biochemical; conditions: read-out: IC50 [gt-1b A156T]
Procedure: (§1) Measuring NS3/4A Inhibitory Activity (Ki) Against Genotype 1b, Against A156T Mutants and Against Genotype 3a
(§2) One assay for measuring inhibitory activity is HCV NS3 protease time-resolved fluorescence (TRF) assay as described below and in Mao et al., Anal. Biochem. 373:1-8, 2008 and International Patent Application Publication WO 2006/102087. A NS3 protease assay can be performed, for example, in a final volume of 20 μl assay buffer containing 50 mM HEPES, pH 7.5, 150 mM NaCl, 15% glycerol, 0.15% TRITON X-100, 10 mM DTT, and 0.1% PEG 8000. NS3 and NS4A protease is pre-incubated with various concentrations of inhibitors in DMSO for 30 min. The reaction is initiated by adding the TRF peptide substrate (final concentration 25 nM). NS3 mediated hydrolysis of the substrate was run for 2.5 hours at room temperature. Product fluorescence is detected using A Pherastar Plus plate reader (BMG) or Envision (Perkin Elmer Life and Analytical Sciences with excitation at 340 nm and emission at 615 nm using the appropriate delay time optimized for the europium fluorescence probe. Testing concentrations of different enzyme forms are selected to result in a signal to background ratio (S/B) of 10-30. IC50 values are derived using a standard four-parameter fit to the data. Ki values are derived from IC50 values using the following formula, IC50=Ki(1+[S]/KM), Eqn (1), where [S] is the concentration of substrate peptide in the reaction and KM is the Michaelis constant. See P. Gallinari et al., 38 BIOCHEM. 5620-32 (1999); P. Gallinari et al., 72 J. VIROL. 6758-69 (1998); M. Taliani et al., 240 ANAL. BIOCHEM. 60-67 (1996); Mao et al., Analytical Biochemistry 373: 1-8, 2008.
(§3) The assay described above was run against genotype 1b at a concentration of 0.2 nM, against A156T mutant strains at a concentration of 0.4 nM, and against genotype 3a at a concentration of 0.025 nM.

[3] = molecular target: HCV NS3/4A protease genotype 3a (Hepatitis C virus genotype 3a, UniProt Q81495); test: HCV NS3/4A protease time-resolved fluorescence (TRF) assay, Ki against genotype 3a; format: biochemical
Procedure: as §1, §2, §3

HCV genotype 1b replicon = test: HCV replicon assay, genotype 1b replicon EC50; format: cell-based, Hepatitis C virus; conditions: Hepatitis C virus, read-out: EC50 [gt-1b]
In short: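 Cells harbouring a stable replicon are grown under G418 selection, then plated with test compound in G418-free medium for 24-48 hours. After washing and lysis, RNA or luciferase signal is measured and expressed as percent of DMSO control to give EC50.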

[4] = IC50 [gt-1b], NS3/4A protease TRF assay, genotype 1b enzyme 0.2 nM, K+ salt
[5] = NS3/4A protease TRF assay, A156T mutant enzyme 0.4 nM, K+ salt
[6] = HCV replicon, genotype 1b, K+ salt
[7] = IC50 [gt-1b], NS3/4A protease TRF assay, genotype 1b enzyme 0.2 nM
[8] = NS3/4A protease TRF assay, A156T mutant enzyme 0.4 nM
[9] = IC50 [gt-1b] (nM), NS3/4A genotype 1b, enzyme 0.2 nM
[10] = NS3/4A gt-1b A156T mutant, enzyme 0.4 nM
[11] = IC50 [gt-1b] (nM), NS3/4A genotype 1b, enzyme 0.2 nM, K+ salt
[12] = NS3/4A gt-1b A156T mutant, enzyme 0.4 nM, K+ salt

SMILES | IC50 [3] [nM] | IC50 [1, 7] [nM] | IC50 [2, 8] [nM] | EC50 (HCV genotype 1b replicon; HCV replicon, genotype 1b) [nM] | other results
COc1ccc2nc(C(F)(F)F)c3c(c2c1)CC[C@]1(C[C@H]2C(=O)N[C@]4(C(=O)NS(=O)(=O)C5(C)CC5)C[C@H]4/C=C\CCCCC[C@H](NC(=O)OCC(C)(C)C)C(=O)N2C1)O3 [Example 382, 2,2-dimethylpropyl [(2R,6S,12Z,13aS,14aR,16aS)-9′-methoxy-14a-{[(1-methylcyclopropyl)sulfonyl]carbamoyl}-5,16-dioxo-5′-(trifluoromethyl)-1,1′,2′,5,6,7,8,9,10,11,13a,14,14a,15,16,16a-hexadecahydrospiro[cyclopropa[e]pyrrolo[1,2-a][1,4]diazacyclopentadecine-2,3′-pyrano[2,3-c]quinolin]-6-yl]carbamate] | 1.09 | – | – | – | IC50 [1, 4]: 0.028 nM; IC50 [2, 5]: 2.34 nM; EC50 (HCV genotype 1b replicon; [6]): 3.61 nM
COc1ccc2nc(C)c3c(c2n1)CC[C@]1(C[C@H]2C(=O)N[C@]4(C(=O)NS(=O)(=O)C5(C)CC5)C[C@H]4/C=C\CCCCC[C@H](NC(=O)OCC(C)(C)C)C(=O)N2C1)O3 [Example 361, 2,2-dimethylpropyl [(2R,6S,12Z,13aS,14aR,16aS)-2′-methoxy-6′-methyl-14a-{[(1-methylcyclopropyl)sulfonyl]carbamoyl}-5,16-dioxo-1,5,6,7,8,9,9′,10,10′,11,13a,14,14a,15,16,16a-hexadecahydrospiro[cyclopropa[e]pyrrolo[1,2-a][1,4]diazacyclopentadecine-2,8′-pyrano[2,3-c][1,5]naphthyridin]-6-yl]carbamate] | 0.433 | 0.012 | 0.241 | 4.43 | –
CCc1nc2ccc(OCCCN3CCOCC3)cc2c2c1O[C@]1(CC2)C[C@H]2C(=O)N[C@]3(C(=O)NS(=O)(=O)C4(C)CC4)C[C@H]3/C=C\CCCCC[C@H](NC(=O)OC(C)(C)C)C(=O)N2C1 [Example 514, tert-butyl {(2R,6S,12Z,13aS,14aR,16aS)-5′-ethyl-14a-{[(1-methylcyclopropyl)sulfonyl]carbamoyl}-9′-[3-(morpholin-4-yl)propoxy]-5,16-dioxo-1,1′,2′,5,6,7,8,9,10,11,13a,14,14a,15,16,16a-hexadecahydrospiro[cyclopropa[e]pyrrolo[1,2-a][1,4]diazacyclopentadecine-2,3′-pyrano[2,3-c]quinolin]-6-yl}carbamate] | 0.224 | 0.012 | 0.0681 | 0.668 | –
Cc1nc2ccccc2c2c1O[C@]1(CC2)C[C@H]2C(=O)N[C@]3(C(=O)NS(=O)(=O)C4(C)CC4)C[C@H]3/C=C\CCCCC[C@H](NC(=O)OC(C)(C)C)C(=O)N2C1 [Example 74, tert-butyl [(2R,6S,12Z,13aS,14aR,16aS)-5′-methyl-14a-{[(1-methylcyclopropyl)sulfonyl]carbamoyl}-5,16-dioxo-1,1′,2′,5,6,7,8,9,10,11,13a,14,14a,15,16,16a-hexadecahydrospiro[cyclopropa[e]pyrrolo[1,2-a][1,4]diazacyclopentadecine-2,3′-pyrano[2,3-c]quinolin]-6-yl]carbamate] | 0.572 | – | – | – | IC50 [1, 9]: 0.008 nM; IC50 [2, 10]: 0.124 nM; EC50 (HCV genotype 1b replicon; genotype 1b replicon): 2.48 nM
Cc1nc2ccc(Cl)cc2c2c1O[C@]1(CC2)C[C@H]2C(=O)N[C@]3(C(=O)NS(=O)(=O)C4(C)CC4)C[C@H]3/C=C\CCCCC[C@H](NC(=O)OCC(C)C)C(=O)N2C1 [Example 189, 2-methylpropyl [(2R,6S,12Z,13aS,14aR,16aS)-9′-chloro-5′-methyl-14a-{[(1-methylcyclopropyl)sulfonyl]carbamoyl}-5,16-dioxo-1,1′,2′,5,6,7,8,9,10,11,13a,14,14a,15,16,16a-hexadecahydrospiro[cyclopropa[e]pyrrolo[1,2-a][1,4]diazacyclopentadecine-2,3′-pyrano[2,3-c]quinolin]-6-yl]carbamate] | 0.394 | – | – | – | IC50 [1, 11]: 0.002 nM; IC50 [2, 12]: 0.062 nM; EC50 (HCV genotype 1b replicon; genotype 1b replicon, K+ salt): 6.42 nM
CC[C@H](C)OC(=O)N[C@H]1CCCCC/C=C\[C@@H]2C[C@@]2(C(=O)NS(=O)(=O)C2(C)CC2)NC(=O)[C@@H]2C[C@]3(CCc4c(c(C(F)(F)F)nc5ccc(OC)cc45)O3)CN2C1=O [Example 460, (2S)-butan-2-yl [(2R,6S,12Z,13aS,14aR,16aS)-9′-methoxy-14a-{[(1-methylcyclopropyl)sulfonyl]carbamoyl}-5,16-dioxo-5′-(trifluoromethyl)-1,1′,2′,5,6,7,8,9,10,11,13a,14,14a,15,16,16a-hexadecahydrospiro[cyclopropa[e]pyrrolo[1,2-a][1,4]diazacyclopentadecine-2,3′-pyrano[2,3-c]quinolin]-6-yl]carbamate] | 1.78 | – | – | – | IC50 [1, 4]: 0.034 nM; IC50 [2, 5]: 2.74 nM; EC50 (HCV genotype 1b replicon; [6]): 2.99 nM
CC(C)(C)OC(=O)N[C@H]1CCCCC/C=C\[C@@H]2C[C@@]2(C(=O)NS(=O)(=O)C2(C)CC2)NC(=O)[C@@H]2C[C@]3(CCc4c(c(C(F)(F)F)nc5ccc(OCCCN6CCOCC6)cc45)O3)CN2C1=O [Example 50, tert-Butyl ((2R,6S,13aS,14aR,16aS,Z)-14a-(((1-methylcyclopropyl)sulfonyl)carbamoyl)-9′-(3-morpholinopropoxy)-5,16-dioxo-5′-(trifluoromethyl)-1′,2′,3,5,6,7,8,9, 10,11,13a,14,14a,15,16,16a-hexadecahydro-1H-spiro[cyclopropa[e]pyrrolo[1,2-a][1,4]diazacyclopentadecine-2,3′-pyrano[2,3-c]quinolin]-6-yl)carbamate] | 0.0965 | – | – | – | IC50 [1, 9]: 0.01 nM; IC50 [2, 10]: 0.0786 nM; EC50 (HCV genotype 1b replicon; genotype 1b replicon): 0.284 nM
Cc1nc2cc(F)c(F)cc2c2c1O[C@]1(CC2)C[C@H]2C(=O)N[C@]3(C(=O)NS(=O)(=O)C4(C)CC4)C[C@H]3/C=C\CCCCC[C@H](NC(=O)OC3(C)CC3)C(=O)N2C1 [Example 195, 1-methylcyclopropyl [(2R,6S,12Z,13aS,14aR,16aS)-8′,9′-difluoro-5′-methyl-14a-{[(1-methylcyclopropyl)sulfonyl]carbamoyl}-5,16-dioxo-1,1′,2′,5,6,7,8,9,10,11,13a,14,14a,15,16,16a-hexadecahydrospiro[cyclopropa[e]pyrrolo[1,2-a][1,4]diazacyclopentadecine-2,3′-pyrano[2,3-c]quinolin]-6-yl]carbamate] | 1.73 | – | – | – | IC50 [1, 11]: 0.01 nM; IC50 [2, 12]: 0.134 nM; EC50 (HCV genotype 1b replicon; genotype 1b replicon, K+ salt): 8.67 nM
CCc1nc2ccc(OC)cc2c2c1O[C@]1(CC2)C[C@H]2C(=O)N[C@]3(C(=O)NS(=O)(=O)C4(C)CC4)C[C@H]3/C=C\CCCCC[C@H](NC(=O)c3cc(C)cs3)C(=O)N2C1 [Example 483, (2R,6S,12Z,13aS,14aR,16aS)-5′-ethyl-9′-methoxy-N-[(1-methylcyclopropyl)sulfonyl]-6-{[(4-methylthiophen-2-yl)carbonyl]amino}-5,16-dioxo-1,1′,2′,6,7,8,9,10,11,13a,14,15,16,16a-tetradecahydrospiro[cyclopropa[e]pyrrolo[1,2-a][1,4]diazacyclopentadecine-2,3′-pyrano[2,3-c]quinoline]-14a(5H)-carboxamide] | 0.667 | 0.008 | 0.0969 | 0.438 | –
